The supplement of paper PMC13380429

Columns and labels:
Conditions in all cases: 72 h
U2OS [1] = experiment: cell viability relative to DMSO; higher = less toxic
Vero E6 [2] = experiment: as above
Calu-3 [3] = experiment: as above
Caco-2 [4] = experiment: as above
HepG2 [5] = experiment: as above
U2OS [6] = experiment: drug sensitivity score (DSS) for viability; higher = more toxic; extreme values may be limits of the assay
Vero E6 [7] = experiment: as above
Calu-3 [8] = experiment: as above
Caco-2 [9] = experiment: as above
HepG2 [10] = experiment: as above
U2OS [11] = experiment: relative viability EC50 (midpoint between 100% and the lowest measured viability); higher = less toxic
Vero E6 [12] = experiment: as above
Calu-3 [13] = experiment: as above
Caco-2 [14] = experiment: as above
HepG2 [15] = experiment: as above

Compound | cell viability (U2OS [1]; 1 nM) | cell viability (U2OS [1]; 10 nM) | cell viability (U2OS [1]; 100 nM) | cell viability (U2OS [1]; 1000 nM) | cell viability (U2OS [1]; 10000 nM) | cell viability (Vero E6 [2]; 1 nM) | cell viability (Vero E6 [2]; 10 nM) | cell viability (Vero E6 [2]; 100 nM) | cell viability (Vero E6 [2]; 1000 nM) | cell viability (Vero E6 [2]; 10000 nM) | cell viability (Calu-3 [3]; 1 nM) | cell viability (Calu-3 [3]; 10 nM) | cell viability (Calu-3 [3]; 100 nM) | cell viability (Calu-3 [3]; 1000 nM) | cell viability (Calu-3 [3]; 10000 nM) | cell viability (Caco-2 [4]; 1 nM) | cell viability (Caco-2 [4]; 10 nM) | cell viability (Caco-2 [4]; 100 nM) | cell viability (Caco-2 [4]; 1000 nM) | cell viability (Caco-2 [4]; 10000 nM) | cell viability (HepG2 [5]; 1 nM) | cell viability (HepG2 [5]; 10 nM) | cell viability (HepG2 [5]; 100 nM) | cell viability (HepG2 [5]; 1000 nM) | cell viability (HepG2 [5]; 10000 nM) | drug sensitivity score (U2OS [6]) | drug sensitivity score (Vero E6 [7]) | drug sensitivity score (Calu-3 [8]) | drug sensitivity score (Caco-2 [9]) | drug sensitivity score (HepG2 [10]) | relative viability EC50 (U2OS [11]) | relative viability EC50 (Vero E6 [12]) | relative viability EC50 (Calu-3 [13]) | relative viability EC50 (Caco-2 [14]) | relative viability EC50 (HepG2 [15])
CC1Sc2c(C(=O)O)c(=O)c3cc(F)c(N4CCNCC4)cc3n21 (stereo not given) [ulifloxacin] | 99.1% | 101% | 98.2% | 97.9% | 83.8% | 96.5% | 95.9% | 109% | 104% | 90.5% | 116% | 95.3% | 94% | 106% | 102% | 95.8% | 124% | 107% | 108% | 104% | 112% | 98.9% | 86.5% | 98.2% | 78.9% | 0.5 | 0 | 0 | 0 | 0.7 | > 10 µM | > 10 µM | > 10 µM | > 10 µM | > 10 µM
Oc1nc(O)c2nc(O)[nH]c2n1 [uric-acid] | 101% | 107% | 99.6% | 102% | 98.4% | 98% | 104% | 97.9% | 102% | 98.4% | 96% | 95.3% | 93.5% | 98.4% | 101% | 96.5% | 98% | 92.6% | 91% | 95.9% | 94.7% | 97.1% | 95.9% | 92.5% | 96% | 0 | 0 | 0 | 0 | 0 | > 10 µM | > 10 µM | > 10 µM | > 10 µM | > 10 µM
C[C@@H]1O[C@@H](O[C@@H]2[C@@H](O)[C@H](OCCc3ccc(O)c(O)c3)O[C@H](CO)[C@H]2OC(=O)/C=C/c2ccc(O)c(O)c2)[C@H](O)[C@H](O)[C@H]1O [verbascoside] | 97.9% | 100% | 96.5% | 96.8% | 93.6% | 98.9% | 99.8% | 94.4% | 101% | 104% | 98.6% | 93.3% | 106% | 105% | 97.1% | 96.4% | 89.7% | 97.8% | 99.8% | 96.9% | 95.3% | 102% | 101% | 106% | 104% | 0 | 0 | 0 | 0 | 0 | > 10 µM | > 10 µM | > 10 µM | > 10 µM | > 10 µM
CCOc1ccccc1OCC1CNCCO1 (stereo not given) [viloxazine] | 94.8% | 98.5% | 102% | 104% | 105% | 96.4% | 89.4% | 94.1% | 92.2% | 102% | 86.6% | 98.2% | 98.6% | 100% | 111% | 111% | 99.5% | 113% | 118% | 95.6% | 116% | 91.7% | 111% | 94.7% | 96.6% | 0 | 0 | 0 | 0 | 0 | > 10 µM | > 10 µM | > 10 µM | > 10 µM | > 10 µM
CC[C@]12CCCN3CCc4c(n(c5ccccc45)[C@@](O)(C(=O)OC)C1)[C@@H]32 [vincamine] | 95.3% | 99.3% | 96.2% | 99.7% | 97.3% | 103% | 89.9% | 104% | 94% | 97.7% | 103% | 94.2% | 94.9% | 95.6% | 102% | 101% | 105% | 91.6% | 101% | 100% | 99.1% | 73.5% | 118% | 102% | 97.7% | 0 | 0 | 0 | 0 | 0 | > 10 µM | > 10 µM | > 10 µM | > 10 µM | > 10 µM
CCCCCCOc1nsnc1C1=CCCN(C)C1 [xanomeline] | 95.3% | 102% | 97.5% | 98.9% | 92.3% | 105% | 104% | 106% | 101% | 95.9% | 101% | 115% | 100% | 104% | 96.6% | 109% | 93.8% | 99.1% | 92.3% | 99.1% | 102% | 102% | 100% | 99.3% | 79.3% | 0 | 0 | 0 | 0 | 0.7 | > 10 µM | > 10 µM | > 10 µM | > 10 µM | > 10 µM
